Assay results as given in PubChem BioAssay (NCI).
Several values for one entry are separate records, joined by “and”; a condition that tells them apart may be missing. Equal values may be shown once.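 Exposure lasted 48 hours, with cells grown in 96-well plates and compounds tested at five concentrations. At the GI50, growth is halved. TGI marks complete inhibition of growth.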

Key:
Test in all cases: NCI anticancer screen, dose series, 48 h
XF 498 CNS = test system: XF 498 CNS
LXFL 529 NSCLC = test system: LXFL 529 NSCLC
HOP-18 NSCLC = test system: HOP-18 NSCLC
DLD-1 colon = test system: DLD-1 colon
DMS 273 small cell lung = test system: DMS 273 small cell lung
A549 NSCLC = test system: A549 NSCLC
DU-145 prostate = test system: DU-145 prostate
COLO 205 colon = test system: COLO 205 colon
BT-549 breast = test system: BT-549 breast
NCI/ADR-RES ovarian = test system: NCI/ADR-RES ovarian

Row | Structure (SMILES) | TGI (XF 498 CNS) | TGI (LXFL 529 NSCLC) | TGI (HOP-18 NSCLC) | TGI (DLD-1 colon) | TGI (DMS 273 small cell lung) | TGI (A549 NSCLC) | GI50 (DU-145 prostate) | TGI (DU-145 prostate) | GI50 (COLO 205 colon) | TGI (COLO 205 colon) | GI50 (BT-549 breast) | TGI (BT-549 breast) | GI50 (A549 NSCLC) | GI50 (NCI/ADR-RES ovarian) | TGI (NCI/ADR-RES ovarian)
1 | CCOC(=O)C(C(O)c1ccc([N+](=O)[O-])cc1)P(=O)(OCC)OCC (stereo not given) | > 100 µM | > 100 µM | > 100 µM | > 100 µM | > 100 µM | > 100 µM |  |  |  |  |  |  |  |  | 
2 | CC1C2CC=CC(=O)[C@@]2(C)CCC12OCCO2 (stereo not given in full) |  | > 100 µM |  | > 100 µM | > 100 µM | > 100 µM |  |  |  |  |  |  |  |  | 
3 | Cc1cc(Cl)cc(Cc2cc(Cl)cc(C)c2O)c1O |  |  |  |  |  | 11.1 µM | 3.47 µM | 17 µM | 5.72 µM | 18.8 µM | 2.46 µM | 7.02 µM | 2.91 µM | 2.07 µM | 5.95 µM
4 | COc1c2c(cc3c1C(=O)Cc1ccc4c(c1CN(C)CC3)OCO4)OCO2 |  |  | > 100 µM | > 100 µM |  | > 100 µM |  |  |  | > 100 µM |  |  |  |  | 
5 | COc1ccc2c(c1OC(C)=O)C1=CC(=O)CCC13CCNC3C2 (stereo not given) |  |  |  |  |  | > 100 µM |  | > 100 µM |  | > 100 µM |  | > 100 µM |  |  | > 100 µM
6 | Cn1cnc([N+](=O)[O-])c1Sc1nccc(=O)[nH]1 | > 100 µM | > 100 µM | > 100 µM | > 100 µM | > 100 µM | > 100 µM |  |  |  | > 100 µM |  |  |  |  | 
7 | CN(C)CCOC(=O)Nc1nc2ccc(Sc3ccccc3)cc2[nH]1 |  |  |  |  |  | 18.3 µM | 4.09 µM | 18.8 µM | 2.16 µM | 5.19 µM | 3.2 µM | 13.5 µM | 4.97 µM | 2.44 µM | 9.65 µM
8 | CN(C)c1ccc(N=C2C=CC(=O)c3ccccc32)cc1 |  |  |  |  |  | 3.89 µM | 1.74 µM | 3.13 µM | 2.06 µM | 4.15 µM | 7.49 µM | 20.5 µM | 1.82 µM | 3.95 µM | 72.6 µM
9 | Cc1ccc(S(=O)(=O)N2CCc3ccc(O)c4c3C2Cc2ccc3c(c2-4)OCO3)cc1 (stereo not given) |  |  |  |  |  | 12.4 µM | 1.27 µM | 8.63 µM | 5.08 µM | 18.7 µM | 0.822 µM | 12.5 µM | 0.808 µM | 0.348 µM | 2.08 µM
10 | C/C(=N\NC(=O)CC(=O)N(C(=O)c1ccc(Cl)cc1)c1ccc(C)cc1)c1ccccc1O | > 100 µM | > 100 µM |  | > 100 µM | > 100 µM | > 100 µM |  |  |  | > 100 µM |  |  |  |  | 
11 | Cc1ccc(OCC2OC(n3cnc4c(Br)nc(Br)nc43)CC2Oc2ccc(C)cc2)cc1 (stereo not given) |  |  |  |  |  | 30 µM and > 41.9 µM | 13.1 µM | 23.8 µM and 5.88 µM | 11.4 µM | 25.3 µM and 13.1 µM | 9.96 µM | 20.6 µM and 34.4 µM |  | 20.4 µM | 53.5 µM and 29.5 µM
12 | CCOC(=O)CNc1nnnn1C1OC(CO)C(O)C1O (stereo not given) | > 100 µM | > 100 µM |  | > 100 µM | > 100 µM | > 100 µM |  |  |  | > 100 µM |  |  |  |  | 
13 | Cc1cc(=O)oc2cc(OC/C=C3\CCC(=O)O3)ccc12 |  |  |  |  |  | > 91.4 µM | 5.31 µM | 22.9 µM | 5.8 µM | 20.5 µM | 15.8 µM | 40 µM | 31.2 µM | 23 µM | 82.9 µM
14 | C=CCN(N=O)C(=O)NCCCCC(NC(C)=O)C(=O)NCc1ccccc1 (stereo not given) | > 100 µM | > 100 µM | > 100 µM |  | > 100 µM | > 100 µM |  |  |  | > 100 µM |  |  |  |  | 
15 | COC1=CC(=O)c2nc(Cl)ccc2C1=O |  |  |  |  |  | 26.1 µM | 1.65 µM | 3.01 µM | 2.31 µM | 4.98 µM | 2.54 µM | 6.42 µM | 12.8 µM | 1.98 µM | 4.24 µM
16 | COc1cc(/C=C2/C(=O)N(C(=O)OCc3ccccc3)C(Cc3cc(OC)c(OC)c(C)c3OC)C(=O)N2Cc2ccccc2)c(OC)c(C)c1OC (stereo not given) |  | > 100 µM | > 100 µM | > 100 µM | > 100 µM | > 100 µM |  |  |  | > 100 µM |  |  |  |  | 
17 | COC(=O)C(=O)C(C(=O)C(=O)Nc1cc(C)ccc1C)c1nc2ccc(C(=O)c3ccccc3)cc2[nH]c1=O (stereo not given) |  | > 100 µM | > 100 µM |  | > 100 µM | > 100 µM |  |  |  | > 100 µM |  |  |  |  | 
18 | C/C(=N/Nc1nc(C)cc(=O)[nH]1)C(=O)O |  |  |  |  |  | > 100 µM |  | > 100 µM |  | > 100 µM |  | > 100 µM |  |  | > 100 µM
19 | COc1ccc(CCc2cc(OC)c(O)c(OC)c2)cc1 | > 100 µM | > 100 µM |  | > 100 µM | > 100 µM | > 100 µM |  |  |  | > 100 µM |  |  |  |  | 
20 | O=C(O)CCC(C(=O)O)N1C(=O)C2C3CCC(C3)C2C1=O (stereo not given) |  |  |  |  |  | > 100 µM |  | > 100 µM |  | > 100 µM |  | > 100 µM |  |  | > 100 µM
